Measurements taken from patent US20220133894A1, “BISPHOSPHONATE-LINKED COMPOUNDS” (OREGON HEALTH & SCIENCE UNIVERSITY, priority 2019, published 2022).

Key:
[1] = system: prostate specific antigen (PSA); test: PSA expression by qRT/PCR in VCaP cells; format: cell-based, human
Description: Cells were cultured in media depleted of androgen and after a washout of 72 hrs were treated with the synthetic androgen R1881, KBU2046, enzalutamide and/or vehicle (control), and resultant effects upon induction of the androgen-responsive gene, prostate specific antigen (PSA) were measured (FIG. 3A).
(§1) LNCaP or VCaP cells cultured in hormone free media were treated with R1881 (R), KBU2046 (46) and/or enzalutamide (E). (FIGS. 3A and 3B) Effects on AR-responsive gene expression. PSA expression was measured by qRT/PCR, normalized to GAPDH and expressed as a percent of control cells (N=3 replicates); * denotes P<0.05 for groups separated by bar. (FIGS. 3C and 3D) Effects on cell growth. Three day growth assays were performed. Data are the number of viable cells, expressed as % of control (N=3 replicates); * P<0.05 compared to control. (E) Effects on AR activation. Western blots of nuclear (N) and cytoplasmic (C) preparations of cell extracts were probed for AR, laminin 1 or α-tubulin. (FIGS. 3F and 3G) Effects on tumor outgrowth after androgen deprivation therapy. LNCaP/AR-luc cells were implanted subcutaneously (N=6 mice/cohort) or orthotopic (N=15 mice/cohort were implanted; N=5 yielded tumors) into castrate mice, treatment with KBU2046 began as noted, and weekly IVIS imaging performed. Data are tumor size, expressed as luminescence intensity. All data are expressed as mean±SEM.
RNA was isolated and qRT/PCR performed as previously described by us (Ding et al., J Biomol Tech 18, 321-330 (2007)). Resultant data were analyzed using the 2^−ΔΔt method (Livak et al., Methods 25, 402-408 (2001)), normalized to GAPDH, for the following primer/probe sets (ABI) PSA (Hs02576345_m1) and GAPDH (Hs99999905_m1). Assays were performed in triplicate, and were repeated.

[2] = system: RAW 267.4 cells; test: ApoTox-Glo Triplex assay in RANKL treated osteoclast cells; format: cell-based, mouse; conditions: 72 hours after treatment
Description: FIG. 5 represents the improved efficacy seen with KBU2046 combined with ZA. In FIG. 5A bone degradation was tested using osteo assays performed as in FIG. 4D. Cells were treated with KBU2046 (46), ZA at 2, 10 or 20 μM, with the indicated combinations, or vehicle (control; CO). Data are the mean±SEM (N=3 replicates); * denotes P<0.05 compared to control, or between conditions denoted by bars. FIG. 5B provides representative photomicrographs of osteo assay wells. Black color denotes presence of bone matrix; RL: RANKL. (FIGS. 5C-5E) Cell viability, cytotoxicity and apoptosis. RAW 267.4 cells were treated with RANKL, at day 4 they were treated with KBU2046, ZA at 1 or 10 μM (ZA1 or ZA10), the indicated combination, or vehicle (CO) and Triplex assay performed 24, 48 or 72 hours later, per Methods. Data are the mean±SEM (N=4 replicates); ¥, #, * denotes P<0.05 compared to control. (FIGS. 5F-5H) In vivo efficacy. Four cohorts of mice, N=15/cohort, were given intracardiac injections of PC3-luc cells, yielding the following successful injections: N=12 control, N=12 ZA, N=13 KBU2046 and N=13 ZA+KBU2046. Treatment was oral 150 mg KBU2046/kg daily (starting 3 days before IC injection), intraperitoneal ZA 100 μg/kg weekly (starting 1 week before IC injection), with oral and intraperitoneal vehicle controls given as indicated. […] (FIGS. 5C and 5D) Quantification of bone lesions. The macroscopic lesions in the jaw were quantified by direct measurement from CT images, and expressed as the mean±SEM percent of control. Bone density of femurs was measured from CT images, and expressed as the mean±SEM percent of control. * denotes P<0.05 compared to control, and for groups indicated by bars.
We next examined the effect of ZA and KBU2046 on osteoclast cell viability, apoptosis and cytotoxicity. RAW 267.4 cells were treated with RANKL for the duration of the experiment, at day 4 they were then treated with ZA, KBU2046, the combination, or vehicle (for controls), and effect on cell viability, apoptosis and cytotoxicity measured by Triplex assay at 24, 48 and 72 hours after treatment (FIGS. 5C-5E). […]

[3] = system: PC3-M cells; test: three-day MTT cell growth assay, chemotherapy with or without KBU2046; format: cell-based, human; conditions: 10 μM KBU2046, 3 day growth assay, androgen independent PC3-M cells
Description: FIG. 1A depicts the effect of chemotherapy on the growth of androgen independent PC3-M PCa cells in vitro. Data are the mean±SEM (N=3 replicates) of cell viability in a 3 day growth assay in the presence of 10 μM KBU2046 or vehicle (control) treated with docetaxel or cabazitaxel. FIG. 1B depicts the effect of chemotherapy on the growth of androgen independent PCa cells in vivo. Mice received subcutaneous implants of PC3-M cells, were monitored until tumors were detectable (250 mm^3), and then treated daily with oral 80 mg KBU2046/kg (46) or vehicle (CO) and with weekly intraperitoneal docetaxel (doc) at 0 or 20 mg/kg, beginning on day 1, and tumor size measured. Data are mean±SEM, with N=20 mice per cohort.
To assess the impact of cytotoxic chemotherapy on PCa growth kinetics seven-day soft agar colony formation assays and three-day MTT cell growth inhibition assays were performed as described by us (Pavese et al., Cancer Lett 352, 179-186 (2014)). MTT assays were in replicates of N=3, and were repeated, soft agar assays were in replicates of N=2 and are presented as mean number of colonies, expressed as percent of untreated controls.

[4] = system: LNCaP cells; test: SRB growth inhibition assay, LNCaP; format: cell-based, human; conditions: 10 μM enzalutamide, 10 μM KBU2046 added to control or enzalutamide treated cells, 72 hours
Description: as §1
Enzalutamide mediated growth inhibition was assessed using Sulforhodamine B (SRB) growth inhibition assays, were performed as previously described (49). In brief, LNCaP and VCaP cells were pre-incubated in charcoal-striped medium for 48 hours and then seeded (1.9×10^4) in 96-well plates. […]

O=C1c2ccccc2OCC1c1ccc(F)cc1 (stereo not shown) [KBU2046, 3-(4-fluorophenyl)chroman-4-one]
decrease of PSA expression in R1881 treated cells ([1]; VCaP cells, R1881 treated): 36%
relative increase of PSA expression in control cells ([1]; VCaP control cells, very low baseline): 14%
cell viability ([2]; compared to control): significant increases
cytotoxicity ([2]; compared to control): decreases
apoptosis ([2]; compared to controls): significant increase
effect of KBU2046 on the ability of docetaxel or cabazitaxel to inhibit cell growth [3]: did not affect
cell growth [4]: no significant effect
